From US20040137082A1, “Compounds and methods for reducing myostatin concentration” (priority 2003, published 2004)

System: myostatin protein
Assay: Column chromatography of muscle homogenate over Cystoseira canariensis fractions in place of the heparin column, eluate read by SDS-PAGE and Western blot
Type: binding, human
Conditions: fraction used as column in place of heparin, plus sepharose; crude muscle homogenate
Excerpt: The testing involved the use of column chromatography analysis of Cystoseira canariensis fractions made as described herein. In the initial testing, the method described by Se-Jin-Lee and Alexandra McPherron, “Regulation of Myostatin Activity and Muscle Growth,” Proc. Nat'l Acad. Sci., Vol. 98, No. 16, pp. 9306-9311 (2001) (FIG. 1), was followed. FIG. 2 hereof provides an illustration of the experimental apparatus used. […]
Protein sodium dodecyl sulfate-polyacrylamide gel electrophoresis (“SDS-PAGE”) was performed with gradient gel from 10 to 20% acrylamide concentrations described by Laemmli UK, “Cleavage of Structural Proteins During 15 Assembly of the Head of Bacteriophage T4,” Nature, 227: 680-685 (1970). […] The supernatant fraction of each sample was removed and used to determine protein concentration by measuring absorbance at 280 nanometers (nm). […]
After transfer, membranes were blocked in buffer containing 0.5% Tween-20, 0.2% gelatin, and 3.0% dry milk (blocking buffer) for at least 1 hour at room temperature. […] The relative concentration of myostatin protein in each sample was determined by scanning densitometry. […]

Substance: heparin
- affinity to myostatin (anti-myostatin Western blot of protein eluted from the chromatography column): cross-recognized 36-37 kDa protein
